Laboratory results from ChEMBL document CHEMBL6087466, “The Potential of PARP Inhibitors as Antitumor Drugs and the Perspective of Molecular Design” (J Med Chem, 2025).

Legend:
[1] = target: Poly [ADP-ribose] polymerase 1 (Homo sapiens, UniProt P09874); assay: Inhibition of PARP1 (unknown origin)
SK-OV-3 = assay: Antiproliferative activity against human SK-OV-3 cells assessed as reduction in cell growth by SRB assay; assay type: functional, cell-based

Chain of Poly [ADP-ribose] polymerase 1 (P09874 whole entry): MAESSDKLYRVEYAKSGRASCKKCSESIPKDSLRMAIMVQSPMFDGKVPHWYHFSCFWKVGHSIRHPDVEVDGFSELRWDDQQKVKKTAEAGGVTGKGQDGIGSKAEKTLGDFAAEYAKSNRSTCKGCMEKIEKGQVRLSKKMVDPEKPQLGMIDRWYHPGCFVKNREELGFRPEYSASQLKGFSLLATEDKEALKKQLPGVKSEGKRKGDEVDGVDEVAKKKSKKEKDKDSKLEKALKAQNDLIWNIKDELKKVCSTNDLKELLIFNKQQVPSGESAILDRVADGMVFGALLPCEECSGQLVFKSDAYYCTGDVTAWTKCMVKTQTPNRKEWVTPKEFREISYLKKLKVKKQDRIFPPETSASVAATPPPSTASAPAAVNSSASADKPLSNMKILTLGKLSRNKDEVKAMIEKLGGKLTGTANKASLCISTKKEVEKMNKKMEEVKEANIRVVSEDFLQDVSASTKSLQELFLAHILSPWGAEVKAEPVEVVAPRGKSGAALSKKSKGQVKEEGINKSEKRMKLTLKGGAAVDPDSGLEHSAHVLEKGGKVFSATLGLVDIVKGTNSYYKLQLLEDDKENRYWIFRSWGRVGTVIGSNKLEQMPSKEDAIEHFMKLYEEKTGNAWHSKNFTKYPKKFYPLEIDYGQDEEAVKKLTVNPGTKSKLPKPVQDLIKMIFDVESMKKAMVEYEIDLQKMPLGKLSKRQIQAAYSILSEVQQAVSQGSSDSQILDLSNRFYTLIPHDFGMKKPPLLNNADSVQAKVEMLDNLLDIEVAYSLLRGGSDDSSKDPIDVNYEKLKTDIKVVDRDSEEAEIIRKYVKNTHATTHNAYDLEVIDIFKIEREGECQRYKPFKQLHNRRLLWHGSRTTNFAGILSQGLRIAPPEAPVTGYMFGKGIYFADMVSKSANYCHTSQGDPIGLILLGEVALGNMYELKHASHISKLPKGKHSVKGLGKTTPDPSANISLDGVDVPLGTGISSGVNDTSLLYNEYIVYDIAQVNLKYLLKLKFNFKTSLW

IC50 [1] [µM]	IC50 (SK-OV-3) [µM]	SMILES
0.001	–	N#Cc1ccc(N2CCN([C@H]3C=C(c4cc5ncccc5c(=O)[nH]4)CC3)CC2)cc1
0.026	4.98	CCNC(=S)N/N=C/c1ccc(-c2nc3c(oc4ccccc43)c(=O)[nH]2)cc1
0.093	–	NC(=O)c1cccc2[nH]c(CCCCCCOc3cc(O)c4c(=O)cc(-c5ccccc5)oc4c3)nc12
